Legend:
SMARCA2-HiBiT = biological target: T1, SMARCA2-HiBiT (Homo sapiens, UniProt P51531); assay: SMARCA2 HiBiT degradation assay in HeLa cells; type: cell-based; details: 18 hours incubation; for DC50: read-out: HeLa_HiBit-SM2 DC50; for Dmax: HeLa, read-out: HeLa-HiBit-SM2 Dmax (%)
T1 construct: SMARCA2-HiBiT knock-in Hela monoclonal cell (CS302366); host or cells: HeLa monoclonal knock-in line (CRISPR HiBiT knock-in at the endogenous locus, heterozygous)
How it was run: (§1)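 HeLa monoclonal lines with heterozygous HiBiT knock-in were seeded at 2500 cells/well in EMEM with 10% FBS and treated with compound for 18 h at 37 °C. Remaining tagged protein was measured by Nano-Glo HiBiT lytic luminescence after 30–60 min at RT, and values came from curve fitting.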

SMARCA4-HiBiT = biological target: T2, SMARCA4-HiBiT (Homo sapiens, UniProt P51532); assay: SMARCA4 HiBiT degradation assay in HeLa cells; type: cell-based; details: 18 hours incubation; for DC50: read-out: HeLa-HiBit-SM4 DC50; for Dmax: HeLa, read-out: HeLa-HiBit-SM4 Dmax (%)
T2 construct: SMARCA4-HiBiT knock-in Hela monoclonal cell (CS3023226); host or cells: HeLa monoclonal knock-in line (CRISPR HiBiT knock-in at the endogenous locus, heterozygous)
T2 sequence (P51532 whole entry): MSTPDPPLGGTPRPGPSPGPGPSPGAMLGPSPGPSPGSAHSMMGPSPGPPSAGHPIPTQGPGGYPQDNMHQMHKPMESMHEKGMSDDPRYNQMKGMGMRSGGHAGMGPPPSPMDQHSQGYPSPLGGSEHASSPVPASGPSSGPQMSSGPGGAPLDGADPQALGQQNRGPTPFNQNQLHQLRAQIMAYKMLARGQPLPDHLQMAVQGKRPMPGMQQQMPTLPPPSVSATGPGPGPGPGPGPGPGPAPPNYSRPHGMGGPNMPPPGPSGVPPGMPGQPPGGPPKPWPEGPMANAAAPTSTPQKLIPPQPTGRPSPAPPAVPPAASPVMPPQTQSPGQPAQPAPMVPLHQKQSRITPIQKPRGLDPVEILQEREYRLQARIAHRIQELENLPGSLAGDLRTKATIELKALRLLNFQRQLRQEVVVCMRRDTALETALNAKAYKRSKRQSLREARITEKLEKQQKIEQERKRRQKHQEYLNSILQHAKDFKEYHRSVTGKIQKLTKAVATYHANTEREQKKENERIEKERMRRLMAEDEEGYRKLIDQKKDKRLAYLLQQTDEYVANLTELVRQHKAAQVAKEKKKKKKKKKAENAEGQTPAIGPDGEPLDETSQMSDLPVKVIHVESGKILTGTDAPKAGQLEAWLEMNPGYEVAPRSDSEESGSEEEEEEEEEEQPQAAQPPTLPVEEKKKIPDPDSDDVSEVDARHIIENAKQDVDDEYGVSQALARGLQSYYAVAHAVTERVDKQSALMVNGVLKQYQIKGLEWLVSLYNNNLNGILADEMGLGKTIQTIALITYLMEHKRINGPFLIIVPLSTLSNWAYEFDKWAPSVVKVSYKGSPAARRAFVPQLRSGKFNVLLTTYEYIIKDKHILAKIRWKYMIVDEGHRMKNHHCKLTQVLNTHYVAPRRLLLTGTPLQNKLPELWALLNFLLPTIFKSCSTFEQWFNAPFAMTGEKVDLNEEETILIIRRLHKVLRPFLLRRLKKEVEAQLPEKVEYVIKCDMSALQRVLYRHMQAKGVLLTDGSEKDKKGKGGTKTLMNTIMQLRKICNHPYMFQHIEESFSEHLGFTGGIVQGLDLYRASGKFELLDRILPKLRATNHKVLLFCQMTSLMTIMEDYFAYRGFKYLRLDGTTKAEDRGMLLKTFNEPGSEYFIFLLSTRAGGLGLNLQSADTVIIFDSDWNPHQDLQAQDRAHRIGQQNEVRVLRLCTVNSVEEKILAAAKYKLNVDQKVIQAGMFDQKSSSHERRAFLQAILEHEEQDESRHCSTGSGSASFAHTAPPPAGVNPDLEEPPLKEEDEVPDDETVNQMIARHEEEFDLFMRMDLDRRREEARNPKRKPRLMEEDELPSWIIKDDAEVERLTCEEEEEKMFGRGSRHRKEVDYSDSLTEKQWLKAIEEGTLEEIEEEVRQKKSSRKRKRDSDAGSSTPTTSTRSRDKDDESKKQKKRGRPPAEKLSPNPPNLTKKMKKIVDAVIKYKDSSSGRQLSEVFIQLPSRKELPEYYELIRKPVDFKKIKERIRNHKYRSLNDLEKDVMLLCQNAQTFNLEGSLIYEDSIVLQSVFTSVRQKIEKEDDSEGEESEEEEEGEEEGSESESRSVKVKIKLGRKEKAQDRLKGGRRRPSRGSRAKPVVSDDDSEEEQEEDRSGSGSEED
How it was run: as §1

T1 sequence (P51531 whole entry): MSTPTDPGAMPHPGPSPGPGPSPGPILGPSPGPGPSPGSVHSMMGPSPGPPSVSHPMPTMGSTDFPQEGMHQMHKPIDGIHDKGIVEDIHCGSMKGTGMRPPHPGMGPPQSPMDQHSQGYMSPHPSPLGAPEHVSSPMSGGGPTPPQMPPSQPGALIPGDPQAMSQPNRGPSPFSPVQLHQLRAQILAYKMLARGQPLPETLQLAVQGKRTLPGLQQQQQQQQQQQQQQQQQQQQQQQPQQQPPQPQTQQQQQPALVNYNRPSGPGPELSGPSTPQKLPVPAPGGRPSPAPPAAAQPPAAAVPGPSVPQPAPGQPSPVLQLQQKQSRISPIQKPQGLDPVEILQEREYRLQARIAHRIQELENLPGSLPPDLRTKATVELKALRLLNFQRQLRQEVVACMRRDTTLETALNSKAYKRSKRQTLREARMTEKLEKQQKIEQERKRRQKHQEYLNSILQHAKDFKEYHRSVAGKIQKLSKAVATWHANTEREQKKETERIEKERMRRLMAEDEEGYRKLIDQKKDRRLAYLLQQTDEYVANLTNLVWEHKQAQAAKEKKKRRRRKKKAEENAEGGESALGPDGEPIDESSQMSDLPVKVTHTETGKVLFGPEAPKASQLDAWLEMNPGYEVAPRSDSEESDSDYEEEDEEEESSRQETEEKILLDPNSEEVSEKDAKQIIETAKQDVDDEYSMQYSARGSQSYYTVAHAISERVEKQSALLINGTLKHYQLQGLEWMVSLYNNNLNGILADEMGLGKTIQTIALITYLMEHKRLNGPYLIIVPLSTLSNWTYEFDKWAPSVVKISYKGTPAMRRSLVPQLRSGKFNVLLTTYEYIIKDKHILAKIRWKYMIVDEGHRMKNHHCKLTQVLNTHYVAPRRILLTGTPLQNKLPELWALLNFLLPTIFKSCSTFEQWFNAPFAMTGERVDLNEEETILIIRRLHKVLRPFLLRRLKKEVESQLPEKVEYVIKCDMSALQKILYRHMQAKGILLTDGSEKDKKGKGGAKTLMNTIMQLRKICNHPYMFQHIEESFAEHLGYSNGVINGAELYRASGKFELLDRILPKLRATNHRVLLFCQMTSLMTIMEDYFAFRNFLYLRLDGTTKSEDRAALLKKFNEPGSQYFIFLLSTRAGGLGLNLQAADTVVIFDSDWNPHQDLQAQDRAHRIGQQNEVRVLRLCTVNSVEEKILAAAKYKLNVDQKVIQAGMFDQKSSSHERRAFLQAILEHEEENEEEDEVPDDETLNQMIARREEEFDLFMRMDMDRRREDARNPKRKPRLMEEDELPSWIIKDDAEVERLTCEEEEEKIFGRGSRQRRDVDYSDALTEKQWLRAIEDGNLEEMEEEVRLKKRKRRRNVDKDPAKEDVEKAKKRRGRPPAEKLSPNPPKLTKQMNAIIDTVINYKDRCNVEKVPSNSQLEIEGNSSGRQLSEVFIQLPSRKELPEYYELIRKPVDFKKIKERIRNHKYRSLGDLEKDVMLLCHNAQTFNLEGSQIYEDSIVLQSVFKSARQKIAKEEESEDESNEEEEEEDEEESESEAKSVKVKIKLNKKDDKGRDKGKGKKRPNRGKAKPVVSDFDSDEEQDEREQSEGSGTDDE

Row | DC50 (SMARCA2-HiBiT) | Dmax (SMARCA2-HiBiT) | DC50 (SMARCA4-HiBiT) | Dmax (SMARCA4-HiBiT) | HeLa-HiBit-SM4 Dmax (%) (SMARCA4-HiBiT) | SMILES
1 | < 10 nM | 75 to 85% | 10 to 100 nM | 50 to 75% | – | O=C1CCC(N2C(=O)c3ccc(N4CCC(CN5CCC(C(=O)N6CCN7c8cc(-c9ccccc9O)nnc8NC[C@H]7C6)CC5)C(F)(F)C4)cc3C2=O)C(=O)N1 (stereo partly drawn) [Example 196, 5-[3,3-difluoro-4-[[4-[(10S)-4-(2-hydroxyphenyl)-1,5,6,8,12-pentazatricyclo[8.4.0.02,7]tetradeca-2(7),3,5-trien-12-carbonyl]piperidin-1-yl]methyl]piperidin-1-yl]-2-(2,6-dioxopiperidin-3-yl) isoindole-1,3-dione]
2 | < 10 nM | 75 to 85% | 10 to 100 nM | 75 to 85% | – | O=C1CCC(N2C(=O)c3ccc(Nc4cccc(N5CCC(N6CCN7c8cc(-c9ccccc9O)nnc8NC[C@H]7C6)CC5)c4)cc3C2=O)C(=O)N1 (stereo partly drawn) [Example 244, 2-(2,6-dioxopiperidin-3-yl)-5-((3-(4-((S)-2-(2-hydroxyphenyl)-5,6,6a,7,9,10-hexahydro-8H-pyrazino[1′,2′:4,5]pyrazino[2,3-c]pyridazin-8-yl)piperidin-1-yl)phenyl)amino)isoindoline-1,3-dione]
3 | < 10 nM | > 85% | 10 to 100 nM | 50 to 75% | – | O=C1CCC(N2C(=O)c3ccc(N4CCC(CN5C[C@@H]6[C@H](C5)[C@H]6CN5CCN6c7cc(-c8ccccc8O)nnc7NC[C@H]6C5)C(F)(F)C4)cc3C2=O)C(=O)N1 (stereo partly drawn) [Example 182, 5-[3,3-difluoro-4-[[(1S,5R)-6-[[(10S)-4-(2-hydroxyphenyl)-1,5,6,8,12-pentazatricyclo[8.4.0.02,7]tetradeca-2(7),3,5-trien-12-yl]methyl]-3-azabicyclo[3.1.0]hexan-3-yl]methyl]piperidin-1-yl]-2-(2,6-dioxopiperidin-3-yl)isoindole-1,3-dione]
4 | < 10 nM | > 85% | 10 to 100 nM | 75 to 85% | – | C[C@H]1CN2c3cc(-c4ccccc4O)nnc3NC[C@H]2CN1C(=O)N1CCN(CC2CCN(c3ccc4c(c3)C(=O)N(C3CCC(=O)NC3=O)C4)CC2)CC1 (stereo partly drawn) [Example 99, 3-(6-(4-((4-((6aS,9S)-2-(2-hydroxyphenyl)-9-methyl-6,6a,7,8,9,10-hexahydro-5H-pyrazino[1′,2′:4,5]pyrazino[2,3-c]pyridazine-8-carbonyl)piperazin-1-yl)methyl)piperidin-1-yl)-1-oxoisoindolin-2-yl)piperidine-2,6-dione]
5 | < 10 nM | > 85% | 10 to 100 nM | 75 to 85% | – | CC1CN(CC2CCN(C(=O)N3CCN4c5cc(-c6ccccc6O)nnc5NC[C@H]4C3)CC2)CCN1c1ccc2c(c1)C(=O)N(C1CCC(=O)NC1=O)C2=O (stereo partly drawn) [Example 272, 2-(2,6-dioxopiperidin-3-yl)-5-(4-((1-((S)-2-(2-hydroxyphenyl)-6,6a,7,8,9,10-hexahydro-5H-pyrazino[1′,2′:4,5]pyrazino[2,3-c]pyridazine-8-carbonyl)piperidin-4-yl)methyl)-2-methylpiperazin-1-yl)isoindoline-1,3-dione]
6 | < 10 nM | 75 to 85% | < 10 nM | 50 to 75% | – | O=C1CCC(N2C(=O)c3ccc(N4CCN(C5CCN(CCN6CCN7c8cc(-c9ccccc9O)nnc8NC[C@H]7C6)C5)CC4)cc3C2=O)C(=O)N1 (stereo partly drawn) [Example 221, 2-(2,6-dioxopiperidin-3-yl)-5-(4-(1-(2-((S)-2-(2-hydroxyphenyl)-5,6,6a,7,9,10-hexahydro-8H-pyrazino[1′,2′:4,5]pyrazino[2,3-c]pyridazin-8-yl)ethyl)pyrrolidin-3-yl)piperazin-1-yl) isoindoline-1,3-dione]
7 | < 10 nM | > 85% | < 10 nM | > 85% | – | O=C1CCC(N2C(=O)c3ccc(N4CCC(CN5CCC(CN6CCN7c8cc(-c9ccccc9O)nnc8NC[C@H]7C6)CC5)C4)cc3C2=O)C(=O)N1 (stereo partly drawn) [Example 225, 2-(2,6-dioxopiperidin-3-yl)-5-(3-((4-(((S)-2-(2-hydroxyphenyl)-5,6,6a,7,9,10-hexahydro-8H-pyrazino[1′,2′:4,5]pyrazino[2,3-c]pyridazin-8-yl)methyl)piperidin-1-yl)methyl)pyrrolidin-1-yl)isoindoline-1,3-dione]
8 | < 10 nM | > 85% | < 10 nM | 75 to 85% | – | O=C1CCC(N2C(=O)c3ccc(N4CCC(CN5CCC(CN6CCN7c8cc(-c9ccccc9O)nnc8NC[C@H]7C6)CC5CO)CC4)cc3C2=O)C(=O)N1 (stereo partly drawn) [Example 236, 2-(2,6-dioxopiperidin-3-yl)-5-(4-((2-(hydroxymethyl)-4-(((S)-2-(2-hydroxyphenyl)-5,6,6a,7,9,10-hexahydro-8H-pyrazino[1′,2′:4,5]pyrazino[2,3-c]pyridazin-8-yl)methyl)piperidin-1-yl)methyl)piperidin-1-yl) isoindoline-1,3-dione]
9 | < 10 nM | > 85% | < 10 nM | – | C (C=50%<Dmax<=75%) | O=C1CCC(N2C(=O)c3ccc(N4CC[C@H](CN5CCC(C(=O)N6CCN7c8cc(-c9cc(F)ccc9O)nnc8NC[C@H]7C6)CC5)[C@@H](F)C4)cc3C2=O)C(=O)N1 (stereo partly drawn) [Example 279, 2-(2,6-dioxopiperidin-3-yl)-5-((3R,4R)-3-fluoro-4-((4-((S)-2-(5-fluoro-2-hydroxyphenyl)-6,6a,7,8,9,10-hexahydro-5H-pyrazino[1′,2′:4,5]pyrazino[2,3-c]pyridazine-8-carbonyl)piperidin-1-yl)methyl)piperidin-1-yl)isoindoline-1,3-dione]
10 | < 10 nM | > 85% | < 10 nM | 75 to 85% | – | O=C1CCC(N2C(=O)c3cccc(N4CCC(CN5CCC(CN6CCN7c8cc(-c9ccccc9O)nnc8NC[C@H]7C6)CC5)CC4)c3C2=O)C(=O)N1 (stereo partly drawn) [Example 127, 2-(2,6-dioxopiperidin-3-yl)-4-(4-((4-(((S)-2-(2-hydroxyphenyl)-5,6,6a,7,9,10-hexahydro-8H-pyrazino[1′,2′:4,5]pyrazino[2,3-c]pyridazin-8-yl)methyl)piperidin-1-yl)methyl)piperidin-1-yl) isoindoline-1,3-dione]
11 | < 10 nM | 75 to 85% | < 10 nM | 75 to 85% | – | O=C1CCC(N2C(=O)c3ccc(N4CCC(CN5CCO[C@H](CN6CCN7c8cc(-c9ccccc9O)nnc8NC[C@H]7C6)C5)CC4)cc3C2=O)C(=O)N1 (stereo partly drawn) [Example 75, 2-(2,6-dioxopiperidin-3-yl)-5-(4-(((R)-2-(((S)-2-(2-hydroxyphenyl)-5,6,6a,7,9,10-hexahydro-8H-pyrazino[1′,2′:4,5]pyrazino[2,3-c]pyridazin-8-yl)methyl)morpholino)methyl)piperidin-1-yl)isoindoline-1,3-dione]
12 | < 10 nM | 50 to 75% | 10 to 100 nM | 50 to 75% | – | O=C1CCC(N2C(=O)c3ccc(N4CCC(CN5CCC(NC6CCN7c8cc(-c9ccccc9O)nnc8NCC7C6)CC5)CC4)cc3C2=O)C(=O)N1 (stereo not drawn) [Example 253, 2-(2,6-dioxopiperidin-3-yl)-5-(4-((4-((2-(2-hydroxyphenyl)-6,6a,7,8,9,10-hexahydro-5H-pyrido[1′,2′:4,5]pyrazino[2,3-c]pyridazin-8-yl)amino)piperidin-1-yl)methyl)piperidin-1-yl) isoindoline-1,3-dione]

From US12448389B2, “BRM targeting compounds and associated methods of use” (Prelude Therapeutics Incorporated, priority 2020, dated 2025)
